# Experimental data as given in US5707798A, “Identification of ligands by selective amplification of cells transfected with receptors” (priority 1994, dated 1998).
# Read-outs that look alike come from different tables or passages of the source. Ends that are not written are not given here.
# Legend:
# NIH 3T3 cells = assay: Amplification response in the absence of the indicated target receptor; type: cell-based, mouse; conditions: absence of the ligand's target receptor
# Experimental: FIG. 16 illustrates the maximal ligand-induced responses of the indicated receptors, as assayed using cotransfected cultures using a Multiple Receptor Format similar to that described in FIG. 11. […] Cells were incubated in wells of a 96 well plate for 4 days with each ligand. Maximal responses were calculated by fitting the data to a model of a single mass-action site.
# m5 muscarinic receptor [1] = target: T1, m5 muscarinic receptor (Homo sapiens, UniProt P08912); type: cell-based; conditions: read-out: negative log Ki (converted)
# T1 construct: expressed in transfected cells; host or cells: NIH 3T3 (mouse fibroblasts)
# T1 sequence (P08912 1-532): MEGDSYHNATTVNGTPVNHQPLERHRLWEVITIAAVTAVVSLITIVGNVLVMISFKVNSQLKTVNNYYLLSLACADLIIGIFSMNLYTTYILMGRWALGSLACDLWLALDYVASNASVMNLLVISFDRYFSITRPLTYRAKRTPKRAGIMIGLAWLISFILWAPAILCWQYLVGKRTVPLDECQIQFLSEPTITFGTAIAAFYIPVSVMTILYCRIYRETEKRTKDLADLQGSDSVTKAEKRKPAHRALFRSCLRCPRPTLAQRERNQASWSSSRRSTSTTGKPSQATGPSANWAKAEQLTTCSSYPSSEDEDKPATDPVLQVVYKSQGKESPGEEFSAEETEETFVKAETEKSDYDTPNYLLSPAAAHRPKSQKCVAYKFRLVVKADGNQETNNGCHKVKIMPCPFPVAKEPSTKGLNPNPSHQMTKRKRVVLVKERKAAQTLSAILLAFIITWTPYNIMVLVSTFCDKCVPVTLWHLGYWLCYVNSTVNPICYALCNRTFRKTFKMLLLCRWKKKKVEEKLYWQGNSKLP
# m1 muscarinic receptor [2] = target: T2, m1 muscarinic receptor (Homo sapiens, UniProt P11229); assay: cell-based
# T2 sequence (P11229 1-460): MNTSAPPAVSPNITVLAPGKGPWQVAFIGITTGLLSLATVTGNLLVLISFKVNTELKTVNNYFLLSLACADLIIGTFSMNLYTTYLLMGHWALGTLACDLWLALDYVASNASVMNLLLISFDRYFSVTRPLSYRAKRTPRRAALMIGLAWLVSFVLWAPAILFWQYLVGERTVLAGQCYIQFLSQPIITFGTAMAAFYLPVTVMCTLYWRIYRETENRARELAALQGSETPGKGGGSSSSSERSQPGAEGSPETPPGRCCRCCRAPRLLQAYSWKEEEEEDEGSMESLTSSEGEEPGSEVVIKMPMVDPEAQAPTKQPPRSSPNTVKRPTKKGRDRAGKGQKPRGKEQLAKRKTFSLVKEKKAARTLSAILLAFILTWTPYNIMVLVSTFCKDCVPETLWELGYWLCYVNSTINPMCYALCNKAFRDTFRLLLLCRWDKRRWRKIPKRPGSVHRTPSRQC
# [3] = target: T3, alpha 2 C10 adrenergic receptor (Homo sapiens, UniProt P08913); type: cell-based; conditions: α2-C10, Table 3
# T3 construct: expressed in transfected cells; host or cells: NIH 3T3 (mouse fibroblasts)
# T3 sequence (P08913 1-465): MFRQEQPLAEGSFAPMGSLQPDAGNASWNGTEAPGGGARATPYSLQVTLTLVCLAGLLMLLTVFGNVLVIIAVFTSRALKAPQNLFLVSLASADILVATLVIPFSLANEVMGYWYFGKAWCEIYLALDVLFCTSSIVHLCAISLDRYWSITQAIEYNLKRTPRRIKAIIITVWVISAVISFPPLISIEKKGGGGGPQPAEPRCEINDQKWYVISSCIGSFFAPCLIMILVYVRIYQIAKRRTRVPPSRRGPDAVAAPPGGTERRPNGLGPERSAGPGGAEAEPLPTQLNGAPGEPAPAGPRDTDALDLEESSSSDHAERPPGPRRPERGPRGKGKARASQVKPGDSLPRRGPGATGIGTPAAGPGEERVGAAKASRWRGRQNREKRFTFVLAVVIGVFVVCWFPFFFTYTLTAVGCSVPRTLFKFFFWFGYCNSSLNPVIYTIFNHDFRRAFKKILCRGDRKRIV
# [4] = target: T4, alpha 2 C4 adrenergic receptor (Homo sapiens, UniProt P18825); type: cell-based; conditions: α2-C4, Table 3; for Max Response: relative to other ligands at the receptor
# T4 construct: expressed in transfected cells; host or cells: NIH 3T3 (mouse fibroblasts)
# T4 sequence (P18825 1-462): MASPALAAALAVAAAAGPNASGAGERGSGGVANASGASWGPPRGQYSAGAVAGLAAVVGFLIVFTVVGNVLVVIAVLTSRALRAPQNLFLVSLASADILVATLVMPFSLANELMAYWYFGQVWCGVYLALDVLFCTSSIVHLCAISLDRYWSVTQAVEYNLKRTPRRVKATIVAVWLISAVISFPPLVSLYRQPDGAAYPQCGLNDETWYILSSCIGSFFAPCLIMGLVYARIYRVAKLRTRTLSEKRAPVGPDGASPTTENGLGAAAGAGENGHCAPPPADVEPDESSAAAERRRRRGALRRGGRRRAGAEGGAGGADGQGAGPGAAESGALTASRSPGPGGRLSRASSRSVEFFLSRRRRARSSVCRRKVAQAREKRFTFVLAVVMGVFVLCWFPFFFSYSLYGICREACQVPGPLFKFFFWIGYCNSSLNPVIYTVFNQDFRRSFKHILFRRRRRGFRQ
# [5] = target: T5, alpha 2 C2 adrenergic receptor (Homo sapiens, UniProt P18089); type: cell-based
# T5 sequence (P18089 1-450): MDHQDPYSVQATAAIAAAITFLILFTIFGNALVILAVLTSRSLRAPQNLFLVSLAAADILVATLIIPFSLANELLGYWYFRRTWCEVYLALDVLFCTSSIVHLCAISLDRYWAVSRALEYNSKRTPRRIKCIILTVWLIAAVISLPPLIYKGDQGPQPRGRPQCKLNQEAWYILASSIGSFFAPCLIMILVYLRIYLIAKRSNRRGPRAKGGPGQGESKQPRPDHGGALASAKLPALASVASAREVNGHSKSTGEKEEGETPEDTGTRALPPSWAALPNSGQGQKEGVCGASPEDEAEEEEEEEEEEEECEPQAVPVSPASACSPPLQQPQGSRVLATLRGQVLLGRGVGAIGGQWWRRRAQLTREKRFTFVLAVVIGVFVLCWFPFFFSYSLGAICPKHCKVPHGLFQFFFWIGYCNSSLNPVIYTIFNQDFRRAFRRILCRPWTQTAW
# m2 muscarinic receptor = target: T6, m2 muscarinic receptor (Homo sapiens, UniProt P08172); assay: cell-based; type: cell-based
# T6 construct: expressed in transfected cells; host or cells: NIH 3T3 (mouse fibroblasts)
# T6 sequence (P08172 1-466): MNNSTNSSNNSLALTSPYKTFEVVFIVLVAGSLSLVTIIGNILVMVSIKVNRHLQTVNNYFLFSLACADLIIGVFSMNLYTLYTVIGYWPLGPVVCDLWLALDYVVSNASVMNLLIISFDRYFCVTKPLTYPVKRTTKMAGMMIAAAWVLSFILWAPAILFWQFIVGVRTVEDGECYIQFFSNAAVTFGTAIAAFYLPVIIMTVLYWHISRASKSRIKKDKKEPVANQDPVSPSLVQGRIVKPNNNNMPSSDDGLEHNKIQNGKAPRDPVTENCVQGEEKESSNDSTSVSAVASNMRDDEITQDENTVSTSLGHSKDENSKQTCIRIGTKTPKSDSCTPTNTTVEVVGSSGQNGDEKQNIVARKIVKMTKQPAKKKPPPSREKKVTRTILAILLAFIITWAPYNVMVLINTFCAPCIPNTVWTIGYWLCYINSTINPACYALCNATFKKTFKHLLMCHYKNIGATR
# m1 muscarinic receptor [6] = target: T2, m1 muscarinic receptor; assay: cell-based; type: cell-based; set-up: expressed in transfected cells; host or cells: NIH 3T3 (mouse fibroblasts); conditions: for Emax: read-out: % Max
# [7] = test system: Glutamate metabatropic receptor; type: cell-based
# m3 muscarinic receptor [8] = target: T7, m3 muscarinic receptor (Homo sapiens, UniProt P20309); assay: cell-based
# m4 muscarinic receptor [9] = target: T8, m4 muscarinic receptor (Homo sapiens, UniProt P08173); assay: cell-based
# T8 sequence (P08173 1-479): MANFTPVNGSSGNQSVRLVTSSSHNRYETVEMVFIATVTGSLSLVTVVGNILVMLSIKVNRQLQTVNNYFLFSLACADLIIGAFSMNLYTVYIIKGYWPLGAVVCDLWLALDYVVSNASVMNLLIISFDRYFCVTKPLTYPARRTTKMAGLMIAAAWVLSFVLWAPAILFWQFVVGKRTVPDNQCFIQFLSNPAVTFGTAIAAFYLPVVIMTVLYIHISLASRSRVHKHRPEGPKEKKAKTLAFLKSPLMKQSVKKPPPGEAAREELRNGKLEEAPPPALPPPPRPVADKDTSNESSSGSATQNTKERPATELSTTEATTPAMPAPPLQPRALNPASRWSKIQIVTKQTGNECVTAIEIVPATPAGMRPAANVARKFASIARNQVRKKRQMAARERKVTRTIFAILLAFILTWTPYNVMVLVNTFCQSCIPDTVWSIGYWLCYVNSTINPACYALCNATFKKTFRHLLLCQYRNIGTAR
# m5 muscarinic receptor [10] = target: T1, m5 muscarinic receptor; type: cell-based; conditions: for Emax: read-out: % Max
# m4 muscarinic receptor [11] = target: T8, m4 muscarinic receptor; assay: cell-based; conditions: read-out: % Max
# m3 muscarinic receptor [12] = target: T7, m3 muscarinic receptor; assay: cell-based; set-up: expressed in transfected cells; host or cells: NIH 3T3 (mouse fibroblasts); conditions: for Emax: read-out: % Max
# m4 muscarinic receptor [13] = target: T8, m4 muscarinic receptor
# Insulin receptor = type: cell-based
# [14] = test system: trk A receptors (NGF receptor); conditions: only when transfected with trk A; cited from earlier work
# trk C receptor = conditions: data not shown
# T7 sequence (P20309 whole entry): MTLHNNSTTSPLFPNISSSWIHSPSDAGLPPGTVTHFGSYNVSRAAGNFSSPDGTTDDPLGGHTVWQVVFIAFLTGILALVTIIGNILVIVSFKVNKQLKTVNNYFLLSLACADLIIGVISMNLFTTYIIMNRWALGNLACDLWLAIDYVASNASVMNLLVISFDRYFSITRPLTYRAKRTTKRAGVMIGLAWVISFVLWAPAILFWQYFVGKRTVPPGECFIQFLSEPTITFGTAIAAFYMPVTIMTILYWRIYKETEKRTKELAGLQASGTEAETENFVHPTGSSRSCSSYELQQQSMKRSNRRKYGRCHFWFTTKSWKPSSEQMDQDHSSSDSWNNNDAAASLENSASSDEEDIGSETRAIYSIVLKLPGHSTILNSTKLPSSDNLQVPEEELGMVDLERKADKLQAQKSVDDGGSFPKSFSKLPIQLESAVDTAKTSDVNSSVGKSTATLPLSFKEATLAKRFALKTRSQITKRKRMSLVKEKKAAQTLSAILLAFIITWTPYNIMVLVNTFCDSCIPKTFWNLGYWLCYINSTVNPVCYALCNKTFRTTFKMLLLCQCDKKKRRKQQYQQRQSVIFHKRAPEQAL
molecule,measurement,setting,value
O=C(O)CCC/C=C\C[C@@H]1[C@@H](/C=C/[C@@H](O)COc2cccc(C(F)(F)F)c2)[C@H](O)C[C@@H]1O (racemic) [Fluprostenol],induction of responses,NIH 3T3 cells,unable to induce responses
C[N+]1(C)CCC(OC(=O)C(c2ccccc2)c2ccccc2)CC1 [4-DAMP],Ki,m5 muscarinic receptor [1],1 nM
same,Ki,m1 muscarinic receptor [2],2.51 nM
C=CCN1CCc2nc(N)sc2CC1 [BHT 920],EC50,[3],> 10000 nM
same,EC50,[4],> 10000 nM
CCN1CCc2nc(N)oc2CC1 [BHT 933],EC50,[3],> 10000 nM
same,EC50,"[5]; α2-C2, Table 3",> 10000 nM
Cc1cccc([C@H](C)c2cnc[nH]2)c1C [Dexmedetomidine],EC50,[5],2 nM
CNC[C@H](O)c1ccc(O)c(O)c1 [Epinephrine],Max Response,[4],+
C[N+](C)(C)CC#CCOC(=O)Nc1cccc(Cl)c1 [McN A-434],EC50,"m2 muscarinic receptor; m2 + Gq-i5, Table 1A, read-out: EC50",1500 ± 600 nM
same,% Max,m2 muscarinic receptor; nih 3t3 cells,108 ± 7%
same,EC50,"m1 muscarinic receptor [6]; m1, Table 1A, read-out: EC50",1100 ± 200 nM
same,% Max,m1 muscarinic receptor [6]; nih 3t3 cells,43 ± 2%
COc1nc(C)nc(Cl)c1N=C1NCCN1 [Moxonidine],Max Response,[4],+
Cc1cc(C(C)(C)C)c(O)c(C)c1CC1=NCCN1 [Oxymetazoline],Max Response,[4],+
N[C@@H](Cn1oc(=O)[nH]c1=O)C(=O)O [Quisqualate],EC50,"[7]; Table 2, read-out: Ligand EC50",2400 nM
same,Rmax,[7]; relative to other clones,+
C1COC(NC(C2CC2)C2CC2)=N1 [Rilmenidine],Max Response,[4],+
"Brc1c(NC2=NCCN2)ccc2nccnc12 [UK 14,304]",Max Response,[4],+
COc1ccccc1CNCCCCCCNCCCCCCCCNCCCCCCNCc1ccccc1OC [methocrtramine],Ki,m5 muscarinic receptor [1],> 1000 nM
same,Ki,m1 muscarinic receptor [2],501 nM
same,Ki,m3 muscarinic receptor [8],> 1000 nM
same,Ki,m4 muscarinic receptor [9],398 nM
C[C@@H]1O[C@H](C[N+](C)(C)C)C[C@H]1O [muscarine],Emax,m5 muscarinic receptor [10],86%
same,Emax,m4 muscarinic receptor [11],69 ± 2%
same,Emax,m1 muscarinic receptor [6],84 ± 4%
same,Emax,m3 muscarinic receptor [12],84 ± 6%
O=C1CCCN1CC#CCN1CCCC1 [oxotremorine],Emax,m2 muscarinic receptor; read-out: % Max,100 ± 5%
same,EC50,m2 muscarinic receptor; read-out: EC50,19 ± 10 nM
same,EC50,m2 muscarinic receptor; read-out: Ligand EC50,19 ± 10 nM
same,EC50,"m5 muscarinic receptor [10]; m5, Table 1A, read-out: EC50",55 ± 1 nM
same,EC50,"m5 muscarinic receptor [10]; m5, Table 2, read-out: Ligand EC50",55 ± 1 nM
same,Emax,m5 muscarinic receptor [10],74 ± 2%
same,EC50,m4 muscarinic receptor [13],33 ± 14 nM
same,EC50,m4 muscarinic receptor [13]; read-out: Ligand EC50,33 ± 14 nM
same,Emax,m4 muscarinic receptor [11],102 ± 3%
same,Emax,m1 muscarinic receptor [6],75 ± 10%
same,EC50,m1 muscarinic receptor [6]; read-out: EC50,390 ± 130 nM
same,EC50,m1 muscarinic receptor [6]; read-out: Ligand EC50,390 ± 130 nM
same,Emax,m3 muscarinic receptor [12],66 ± 5%
same,EC50,m3 muscarinic receptor [12]; read-out: EC50,210 ± 60 nM
same,EC50,m3 muscarinic receptor [12]; read-out: Ligand EC50,210 ± 60 nM
Clc1cc(I)cc(Cl)c1NC1=NCCN1 [p-I-Clonidine],Max Response,[5],+
Nc1cc(Cl)c(NC2=NCCN2)c(Cl)c1 [p-NH2-Clonidine],Max Response,"[5]; α2-C2, Table 3, relative to other ligands at the receptor",+
CNC[C@H](O)c1cccc(O)c1 [phenylephrine],induction of responses,NIH 3T3 cells,unable to induce responses
Insulin,EC50,"Insulin receptor; Table 2, read-out: Ligand EC50",0.08 ± 0.08 nM
same,Rmax,Insulin receptor; relative to other clones,+
Nerve growth factor [NGF],growth stimulation,[14],stimulates growth
same,induction of amplification responses,trk C receptor,not able to induce amplification responses
endothelin-3 [ET-3],induction of responses,NIH 3T3 cells,unable to induce responses
"substance P (RPKPQQFFGLM; ends and bridges not checked; UniProt P20366 58-68, looked up)",induction of responses,NIH 3T3 cells,unable to induce responses
